US12479849B2, “EGFR inhibitors for the treatment of cancer” (Hoffmann-La Roche Inc., priority 2019, dated 2025)
pIC50: −log10 of the molar value. Where a name gives a salt, the structure may show the parent alone.

Each molecule was assayed against T1, EGFR TMLRCS (Homo sapiens, UniProt P00533, C797S/L858R/T790M) (assay: HTRF Phospho EGFR TMLRCS Assay (Cellular)). Conditions: BaF3-TMLRCS cell line, 4 hours incubation, Phospho-EGFR HTRF readout.
T1 construct: host or cells: BaF3-TMLRCS (Ba/F3 cells, kept under puromycin selection)
Assay type: cell-based
Description: HTRF Phospho EGFR TMLRCS Assay (Cellular)
BaF3-TMLRCS cell line were obtained from Crownbio (San Diego, CA, USA). Cells were maintained at 37° C., 5% CO2 in RPMI ATCC (Gibco 31870)+2 mM Glutamine+0.5 μg/ml Puromycin supplemented with 10% fetal bovine serum (FBS) (Gibco).
Cells are transferred as above to Greiner Bio-One, Nr. 784-08 micro-titerplate at 20000 cells/well in 12.5 μl of growth medium/well after the plates had been pre-filled with 12.5 nl of DMSO solutions of the to be tested compounds (in dose response) or DMSO only. After spinning the plates at 300×g for 30 seconds the cells were incubated for 4 hours at 37 C, 5% CO2, 95% humidity. The cells were lysed by adding to the compound mix 4 μl/well of the supplemented lysis buffer (Cis-bio, Phospho-EGFR HTRF kit, 64EG1PEH), followed by incubation for 30 min at room temperature with shaking (400 rpm). The plates were then frozen and stored overnight at −80 C. On the next day and after thawing the plates, 4 μl of a mixture of anti-Phospho-EGFR Cryptate and of anti-Phospho-EGFR-d2 antibody solutions prepared in the supplied detection buffer was added to each well. The lidded plates were then incubated for 4 h at room temperature before reading the fluorescence emission at 616 and 665 nm using an Envision reader (Perkin Elmer). Data was analyzed in similar fashion as above using the normalized ratio of the 665 to 616 signals multiplied by 10000.

Row | Molecule | pIC50
1 | 2-(4,7-Dichloro-6-(4-((3S,4S)-3-fluoro-1-(2-methoxyethyl)piperidin-4-yl)phenyl)-2H-indazol-2-yl)-2-((R)-6-fluoro-6,7-dihydro-5H-pyrrolo[1,2-c]imidazol-1-yl)-N-(thiazol-2-yl)acetamide OR 2-(4,7-dichloro-6-(4-((3R,4R)-3-fluoro-1-(2-methoxyethyl)piperidin-4-yl)phenyl)-2H-indazol-2-yl)-2-((R)-6-fluoro-6,7-dihydro-5H-pyrrolo[1,2-c]imidazol-1-yl)-N-(thiazol-2-yl)acetamide [Example 56] | 7.89
2 | CCN1CC[C@H](c2ccc(-c3cc(Cl)c4cn(C(C(=O)Nc5nccs5)c5ncn6c5C[C@@H](F)C6)nc4c3Cl)cc2)[C@@H](F)C1 (mixture of isomers) [Example 32, 2-(4,7-Dichloro-6-(4-(rac-(3R,4R)-1-ethyl-3-fluoropiperidin-4-yl)phenyl)-2H-indazol-2-yl)-2-((R)-6-fluoro-6,7-dihydro-5H-pyrrolo[1,2-c]imidazol-1-yl)-N-(thiazol-2-yl)acetamide] | 8.40
3 | O=C(Nc1nccs1)C(c1ncn2c1C[C@@H](F)C2)n1cc2c(Cl)cc(-c3ccc(N4CCOCC4)nc3)c(Cl)c2n1 (mixture of isomers) [Example 29, 2-[4,7-Dichloro-6-(6-morpholin-4-ylpyridin-3-yl)indazol-2-yl]-2-[rac-(6R)-6-fluoro-6,7-dihydro-5H-pyrrolo[1,2-c]imidazol-1-yl]-N-(1,3-thiazol-2-yl)acetamide] | 8.22
4 | O=C(Nc1nccs1)C(c1ncn2c1C[C@@H](F)C2)n1cc2c(Cl)cc(-c3ccc(C4CCNCC4)cc3)c(Cl)c2n1 (mixture of isomers) [Example 30, 2-[4,7-Dichloro-6-(4-piperidin-4-ylphenyl)indazol-2-yl]-2-[rac-(6R)-6-fluoro-6,7-dihydro-5H-pyrrolo[1,2-c]imidazol-1-yl]-N-(1,3-thiazol-2-yl)acetamide hydrochloride] | 7.48
5 | CCN1CCC(c2ccc(-c3cc(Cl)c4cn(C(C(=O)Nc5nccs5)c5ncn6c5C[C@@H](F)C6)nc4c3Cl)cc2)CC1 (mixture of isomers) [Example 31, 2-[4,7-Dichloro-6-[4-(1-ethylpiperidin-4-yl)phenyl]indazol-2-yl]-2-[rac-(6R)-6-fluoro-6,7-dihydro-5H-pyrrolo[1,2-c]imidazol-1-yl]-N-(1,3-thiazol-2-yl)acetamide] | 8.00
6 | CN(C)CCOc1ccc(-c2cc(Cl)c3cn(C(C(=O)Nc4nccs4)c4ncn5c4C[C@@H](F)C5)nc3c2Cl)cc1 (mixture of isomers) [Example 34, 2-[4,7-Dichloro-6-[4-[2-(dimethylamino)ethoxy]phenyl]indazol-2-yl]-2-[rac-(6R)-6-fluoro-6,7-dihydro-5H-pyrrolo[1,2-c]imidazol-1-yl]-N-(1,3-thiazol-2-yl)acetamide] | 8.22
7 | N#Cc1cc(-c2cc(Cl)c3cn(C(C(=O)Nc4nccs4)c4ncn5c4C[C@@H](F)C5)nc3c2Cl)ccc1N1CCOCC1 (mixture of isomers) [Example 36, rac-2-(4,7-Dichloro-6-(3-cyano-4-morpholinophenyl)-2H-indazol-2-yl)-2-((R)-6-fluoro-6,7-dihydro-5H-pyrrolo[1,2-c]imidazol-1-yl)-N-(thiazol-2-yl)acetamide] | 8.05
8 | CCN1CC[C@@H](c2ccc(-c3cc(Cl)c4cn(C(C(=O)Nc5nccs5)c5ncn6c5C[C@@H](F)C6)nc4c3Cl)cc2)[C@H](F)C1 (mixture of isomers) [Example 38, 2-[4,7-Dichloro-6-[4-[rac-(3S,4S)-1-ethyl-3-fluoro-4-piperidyl]phenyl]indazol-2-yl]-2-[(6R)-6-fluoro-6,7-dihydro-5H-pyrrolo[1,2-c]imidazol-1-yl]-N-thiazol-2-yl-acetamide OR 2-[4,7-Dichloro-6-[4-[rac-(3R,4R)-1-ethyl-3-fluoro-4-piperidyl]phenyl]indazol-2-yl]-2-[(6R)-6-fluoro-6,7-dihydro-5H-pyrrolo[1,2-c]imidazol-1-yl]-N-thiazol-2-yl-acetamide] | 8.00
9 | O=C(Nc1nccs1)C(c1ncn2c1C[C@@H](F)C2)n1cc2c(Cl)cc(-c3ccc(N4CCC(O)CC4)cc3)c(Cl)c2n1 (mixture of isomers) [Example 39, rac-2-(4,7-Dichloro-6-(4-(4-hydroxypiperidin-1-yl)phenyl)-2H-indazol-2-yl)-2-((R)-6-fluoro-6,7-dihydro-5H-pyrrolo[1,2-c]imidazol-1-yl)-N-(thiazol-2-yl)acetamide] | 8.40
10 | CN(C)CCN(C)c1ccc(-c2cc(Cl)c3cn(C(C(=O)Nc4nccs4)c4ncn5c4C[C@@H](F)C5)nc3c2Cl)cc1 (mixture of isomers) [Example 41, rac-2-(4,7-Dichloro-6-(4-((2-(dimethylamino)ethyl)(methyl)amino)phenyl)-2H-indazol-2-yl)-2-((R)-6-fluoro-6,7-dihydro-5H-pyrrolo[1,2-c]imidazol-1-yl)-N-(thiazol-2-yl)acetamide] | 8.00
11 | O=C(Nc1nccs1)C(c1ncn2c1C[C@@H](F)C2)n1cc2c(Cl)cc(-c3ccc(CCCN4CCC(CO)CC4)cc3)c(Cl)c2n1 (mixture of isomers) [Example 47, rac-2-(4,7-Dichloro-6-(4-(3-(4-(hydroxymethyl)piperidin-1-yl)propyl)phenyl)-2H-indazol-2-yl)-2-((R)-6-fluoro-6,7-dihydro-5H-pyrrolo[1,2-c]imidazol-1-yl)-N-(thiazol-2-yl)acetamide] | 8.10
12 | CN(C)Cc1ccc(-c2cc(Cl)c3cn(C(C(=O)Nc4nccs4)c4ncn5c4C[C@@H](F)C5)nc3c2Cl)cc1 (mixture of isomers) [Example 48, rac-2-(4,7-Dichloro-6-(4-((dimethylamino)methyl)phenyl)-2H-indazol-2-yl)-2-((R)-6-fluoro-6,7-dihydro-5H-pyrrolo[1,2-c]imidazol-1-yl)-N-(thiazol-2-yl)acetamide] | 8.10
13 | CN(C)Cc1ccc(-c2cc(Cl)c3cn(C(C(=O)Nc4nccs4)c4ncn5c4C[C@@H](F)C5)nc3c2Cl)cc1F (mixture of isomers) [Example 49, rac-2-(4,7-Dichloro-6-(4-((dimethylamino)methyl)-3-fluorophenyl)-2H-indazol-2-yl)-2-((R)-6-fluoro-6,7-dihydro-5H-pyrrolo[1,2-c]imidazol-1-yl)-N-(thiazol-2-yl)acetamide] | 8.10
14 | O=C(Nc1nccs1)C(c1ncn2c1C[C@@H](F)C2)n1cc2c(Cl)cc(-c3ccc(C45CC(CN6CCC(CO)CC6)(C4)C5)cc3)c(Cl)c2n1 (mixture of isomers) [Example 50, rac-2-(4,7-Dichloro-6-(4-(3-((4-(hydroxymethyl)piperidin-1-yl)methyl)bicyclo[1.1.1]pentan-1-yl)phenyl)-2H-indazol-2-yl)-2-((R)-6-fluoro-6,7-dihydro-5H-pyrrolo[1,2-c]imidazol-1-yl)-N-(thiazol-2-yl)acetamide] | 7.92
15 | O=C(Nc1nccs1)C(c1ncn2c1C[C@@H](F)C2)n1cc2c(Cl)cc(-c3ccc(CCN4CCC(CO)CC4)cc3)c(Cl)c2n1 (mixture of isomers) [Example 51, rac-2-(4,7-Dichloro-6-(4-(2-(4-(hydroxymethyl)piperidin-1-yl)ethyl)phenyl)-2H-indazol-2-yl)-2-((R)-6-fluoro-6,7-dihydro-5H-pyrrolo[1,2-c]imidazol-1-yl)-N-(thiazol-2-yl)acetamide] | 8.00
16 | O=C(Nc1nccs1)C(c1ncn2c1C[C@@H](F)C2)n1cc2c(Cl)cc(-c3ccc(CCN4CCC(CO)C4)cc3)c(Cl)c2n1 (mixture of isomers) [Example 52, rac-2-(4,7-Dichloro-6-(4-(2-(3-(hydroxymethyl)pyrrolidin-1-yl)ethyl)phenyl)-2H-indazol-2-yl)-2-((R)-6-fluoro-6,7-dihydro-5H-pyrrolo[1,2-c]imidazol-1-yl)-N-(thiazol-2-yl)acetamide] | 8.22
17 | O=C(Nc1nccs1)C(c1ncn2c1C[C@@H](F)C2)n1cc2c(Cl)cc(-c3ccc(CN4CCC(CO)CC4)cc3)c(Cl)c2n1 (mixture of isomers) [Example 53, rac-2-(4,7-Dichloro-6-(4-04-(hydroxymethyl)piperidin-1-yl)methyl)phenyl)-2H-indazol-2-yl)-2-((R)-6-fluoro-6,7-dihydro-5H-pyrrolo[1,2-c]imidazol-1-yl)-N-(thiazol-2-yl)acetamide] | 8.30
18 | O=C(Nc1nccs1)C(c1ncn2c1C[C@@H](F)C2)n1cc2c(Cl)cc(-c3ccc(CCCN4CCC(O)CC4)cc3)c(Cl)c2n1 (mixture of isomers) [Example 57, rac-2-(4,7-Dichloro-6-(4-(3-(4-hydroxypiperidin-1-yl)propyl)phenyl)-2H-indazol-2-yl)-2-((R)-6-fluoro-6,7-dihydro-5H-pyrrolo[1,2-c]imidazol-1-yl)-N-(thiazol-2-yl)acetamide] | 8.15
19 | O=C(Nc1nccs1)C(c1ncn2c1C[C@@H](F)C2)n1cc2c(Cl)cc(-c3ccc(CN4CCC(O)CC4)cc3)c(Cl)c2n1 (mixture of isomers) [Example 58, rac-2-(4,7-Dichloro-6-(4-((4-hydroxypiperidin-1-yl)methyl)phenyl)-2H-indazol-2-yl)-2-((R)-6-fluoro-6,7-dihydro-5H-pyrrolo[1,2-c]imidazol-1-yl)-N-(thiazol-2-yl)acetamide] | 8.30
